Source: publication PMC4381330, “Identification of a novel selective agonist of PPARγ with no promotion of adipogenesis and less inhibition of osteoblastogenesis” (Scientific Reports, 2015)

What was measured:
[1] = system: 3T3-L1 preadipocytes; test: Adipogenic differentiation of 3T3-L1 preadipocytes (Oil red O, triglyceride content); format: cell-based, mouse
Protocol: (§1) 3T3-L1 preadipocytes were grown to confluency in DMEM containing 10% CS. At 2 days post-confluency, the cells were stimulated with differentiation medium (DMEM containing 10% FBS, 10 μg/mL insulin, 1 μM dexamethasone, and 0.5 mM IBMX) for 48 h. Then, the cells were exposed in post-differentiation-maintaining medium (DMEM containing 10% FBS and 10 μg/mL insulin) for a further 48 h, which was replaced with expansion medium (DMEM containing 10% FBS) every 2 days after then. Compounds were added to the post-differentiation and expansion medium. At day 4, the cells were harvested for RNA preparation. At Day 8, the cells were fixed with 10% formaldehyde and stained with Oil red O solution. After washing with water, photos were taken. Solubilized dye was quantified at 550 nm. In addition, total triglyceride of the cells was measured by a total TG measurement kit (Applygene, China). Experiments were performed at least three times.

[2] = system: osteoblast marker genes in MC3T3-E1 cells; test: Expression of osteoblast marker genes in MC3T3-E1 cells (qPCR); format: cell-based
Protocol: (§2) MC3T3-E1 cells were cultured in α-MEM to confluency in 24-well plates and then cultured in differentiation medium (α-MEM supplemented with 200 μM ascorbic acid and 10 mM β-glycerophosphate) for 7, 14, and 21 days, which was replaced every 3 days. The cells were treated with DMSO, rosiglitazone, or F12016 at the start of differentiation. At day 8, 15 and 22, total RNA was isolated, and real-time PCR was performed as described below.
(§3) Total RNA was extracted using TRIzol reagent (Invitrogen). First-strand cDNA was synthesized from the total RNA using a reverse transcriptional kit (TransGen). Quantitative PCR with SYBR Green (Roche Diagnostics, Lewes, UK) was performed on a Stratagene MX3000P real-time PCR system (Agilent). Melting curves were obtained, and the specificity of PCR products was checked on agarose gels. Relative mRNA expression was determined by the ΔΔCt method and normalized to GAPDH mRNA levels.

[3] = system: osteoblast marker genes in MC3T3-E1 cells; parameters: method as in PMID 21892191; settings: rosiglitazone 10 μM; cited from earlier work
[4] = system: PPARγ LBD mutants; format: cell-based, human; settings: compared with wild-type PPARγ LBD
Protocol: All chemicals were purchased from Sigma-Aldrich (St. Louis, MO, USA). All medium and serum were obtained from Gibco (Invitrogen). […] Mutations in pBIND-PPARγ-LBD were created by site-directed mutagenesis using the Fast Mutagenesis System (TransGen Biotech, Beijing, China).
The determination of nuclear receptor activation was performed as previously. Briefly, HEK293T cells were transfected with GAL4-pGL4-luc reporter plasmid and pBIND-PPARγ-LBD expression plasmid using Lipofectamine 2000 (Invitrogen) for 6 h before treatment with compounds for 20–24 h. Activity was determined by the Luciferase Assay System (Promega).

[5] = system: MC3T3-E1 preosteoblasts; test: Osteoblastic differentiation of MC3T3-E1 cells (Alizarin red S, Alp activity); format: cell-based; settings: F12016 1, 10, 30 μM
Protocol: as §2
Mature osteoblasts were stained with Alizarin red S and Alp activity were measured at day 22. In brief, cells were fixed with 75% ethanol and stained with 40 mM Alizarin red S solution (pH 4.1–4.3) for 10 min. For Alp assay, the cells were harvested and sonicated on ice with two 30s-pulses. Supernatant of lysate was incubated with isopyknic 1.0 mg/ml pNPP (Sigma–aldrich) solution (1 M diethanolamine buffer, 0.5 mM magnesium chloride) for 30 min at 37°C. The reaction was measured at 405 nm. Relative ALP activity was normalized to the protein concentration.

[6] = system: PPARγ target genes in differentiating 3T3-L1 cells; test: Expression of adipogenesis-related and PPARγ-responsive genes in differentiating 3T3-L1 adipocytes (qPCR); format: cell-based, mouse
Protocol: as §1, §3

[7] = system: diabetic KKAy mice; test: Diabetic KKAy mice, 21 days treatment (fasting blood glucose, OGTT, ITT, body weight); settings: after 21 days, F12016 75 mg/kg, rosiglitazone 5 mg/kg
Protocol: Fasting blood glucose was measured with Onetoch Ultra Teststrip (Johnson & Johnson) at day 0, 3, 7, 14, 21, and body weight were monitored during these days.
After 14 days of treatment, oral glucose tolerance test (OGTT) was performed. Mice were fasted for 6 h with free access to water. 2 g/kg of glucose was given by gavage and blood glucose was measured at 0, 30, 60, 90, and 120 min.
After 21 days of feeding, insulin tolerance test (ITT) was carried out. Mice were fasted for 4 h before being injected 1 U/kg of recombinant human insulin (Novo Nordisk) subcutaneously, and blood glucose was measured at 0, 40, 90, and 120 min after insulin injection.

SMILES | effect of co-incubation on rosiglitazone-induced adipogenesis ([1]; GW9662 20 μM plus RGZ 10 μM) | expression of Alp and Col1 ([2]; 7 days) | expression of RANKL ([2]; 7 days, rosiglitazone 1 μM, compared with control) | expression of Ibsp and Bglap ([2]; Ibsp 14 days, Bglap 21 days) | expression of RANKL in differentiated MC3T3-E1 cells [3] | activation of S289A, H323A, H449A and Y473A mutants [4] | alkaline phosphatase (Alp) activity [5] | mineralization (Alizarin Red S) [5] | mRNA levels of 11β-HSD1 [6] | expression of fatty acid synthase (Fasn) ([6]; both compounds to a similar extent) | intracellular triglyceride (TG) content ([1]; 6 days of stimulation) | lipid accumulation / intracellular lipid droplets (Oil red O staining) ([1]; RGZ 0.1, 1, 10 μM, F12016 1, 10, 30 μM) | blood glucose after insulin injection (ITT) ([7]; insulin 1 IU/kg) | average body weight ([7]; vs vehicle)
O=C(Nc1ccccc1)c1cc([N+](=O)[O-])ccc1Cl [GW9662, reference compound] | weakened |  |  |  |  |  |  |  |  |  |  |  |  | 
CN(CCOc1ccc(CC2SC(=O)NC2=O)cc1)c1ccccn1 (centres unmarked) [rosiglitazone, reference compound] |  | reduced expressions | not significantly changed | reduced expressions | reduced expression of RANKL | nearly abolished | significantly reduced alkaline phosphatase (Alp) activity | impaired calcification of bone cells | similarly decreased the mRNA levels | upregulated expression | significant increase | significant increase in Oil red O staining | significantly reduced blood glucose | showed weight gain in a certain extent
